Assays:
JAK1 = JAK1 (Homo sapiens (Human), UniProt P23458); assay: Jak Biochemical HTRF Assay, JAK1; conditions: HTRF biochemical assay, GST-tagged catalytic domain; top concentration tested […]; read-out: JAK1 IC50
Text: (§1) Jak Biochemical HTRF Assay Protocol
(§2) Subsequent reagent additions employed an Agilent Bravo.

JAK2 = JAK2 (Homo sapiens (Human), UniProt O60674); assay: Jak Biochemical HTRF Assay, JAK2; conditions: HTRF biochemical assay, GST-tagged catalytic domain; top concentration tested […]
Chain of JAK2 (O60674 849-1124): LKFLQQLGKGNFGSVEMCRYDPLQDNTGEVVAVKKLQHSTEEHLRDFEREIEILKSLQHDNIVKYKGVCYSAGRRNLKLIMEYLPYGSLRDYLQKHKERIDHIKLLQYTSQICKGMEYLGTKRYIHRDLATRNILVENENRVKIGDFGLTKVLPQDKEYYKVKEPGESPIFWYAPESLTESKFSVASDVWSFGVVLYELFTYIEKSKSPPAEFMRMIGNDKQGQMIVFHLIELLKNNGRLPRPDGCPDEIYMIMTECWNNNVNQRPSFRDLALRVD
Text: as §1, §2

Chain of JAK1 (P23458 875-1153): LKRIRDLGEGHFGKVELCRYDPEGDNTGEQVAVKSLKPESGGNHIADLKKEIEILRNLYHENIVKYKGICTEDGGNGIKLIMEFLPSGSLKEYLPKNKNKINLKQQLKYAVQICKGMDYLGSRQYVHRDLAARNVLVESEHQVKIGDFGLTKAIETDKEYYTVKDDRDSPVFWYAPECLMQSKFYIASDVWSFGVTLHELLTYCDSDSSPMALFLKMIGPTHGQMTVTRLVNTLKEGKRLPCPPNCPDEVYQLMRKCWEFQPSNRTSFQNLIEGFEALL

Row | Compound | IC50 (JAK1) [nM] | IC50 (JAK2) [nM]
1 | CC(C)(C)OC(=O)N1CC[C@](CC#N)(n2cc(C(N)=O)c(Nc3ccc(F)cc3)n2)[C@@H](F)C1 (racemic) [Example 6-3, tert-butyl (3S,4R and 3R,4S)-4-{4-carbamoyl-3-[(4-fluorophenyl)amino]-1H-pyrazol-1-yl}-4-(cyanomethyl)-3-fluoropiperidine-1-carboxylate] | 1 | 25
2 | CC(C)(C)OC(=O)N1CC[C@](CC#N)(n2cc(C(N)=O)c(Nc3ccc(F)cc3)n2)[C@H](F)C1 (racemic) [Example 6-4, tert-butyl (3S,4S and 3R,4R)-4-{4-carbamoyl-3-[(4-fluorophenyl)amino]-1H-pyrazol-1-yl}-4-(cyanomethyl)-3-fluoropiperidine-1-carboxylate] | 0.05 | 0.2
3 | CC(C)(C)OC(=O)NC1CCC(CC#N)(n2cc(C(N)=O)c(Nc3ccccc3)n2)CC1 (single isomer, unassigned) [Example 2-19, (1s,3s or 1r,3r) tert-butyl {4-[4-carbamoyl-3-(phenylamino)-1H-pyrazol-1-yl]-4-(cyanomethyl)cyclohexyl}carbamate] | 12 | 267
4 | CC(C)(C)OC(=O)N1CC[C@@](CC#N)(n2cc(C(N)=O)c(Nc3ccc(F)cc3)n2)[C@H](F)C1 (single isomer, unassigned) [Example 47-3, tert-butyl (3R,4S or 3S,4R)-4-{4-carbamoyl-3-[(4-fluorophenyl)amino]-1H-pyrazol-1-yl}-4-(cyanomethyl)-3-fluoropiperidine-1-carboxylate] | 2 | 32
5 | CC(C)(C)OC(=O)N1CC[C@](CC#N)(n2cc(C(N)=O)c(Nc3ccc(F)cc3)n2)[C@@H](F)C1 (single isomer, unassigned) [Example 47-4, tert-butyl (3S,4R or 3R,4S)-4-{4-carbamoyl-3-[(4-fluorophenyl)amino]-1H-pyrazol-1-yl}-4-(cyanomethyl)-3-fluoropiperidine-1-carboxylate] | 2 | 83
6 | CNC(=O)c1cn(C2(CC#N)CCN(C(=O)OC(C)(C)C)CC2)nc1Nc1ccccc1 [Example 1, tert-Butyl 4-(cyanomethyl)-4-[4-(methylcarbamoyl)-3-(phenylamino)-1H-pyrazol-1-yl]piperidine-1-carboxylate] | 67 | 1480
7 | CC(C)(C)OC(=O)N1CCC(CC#N)(n2cc(C(N)=O)c(Nc3ccccc3)n2)CC1 [Example 2-1, tert-Butyl 4-[4-carbamoyl-3-(phenylamino)-1H-pyrazol-1-yl]-4-(cyanomethyl)piperidine-1-carboxylate] | 1 | 27
8 | CC(C)(C)OC(=O)N1CCC(CC#N)(n2cc(C(N)=O)c(Nc3ccc(Br)cc3)n2)CC1 [Example 2-2, tert-butyl 4-{3-[(4-bromophenyl)amino]-4-carbamoyl-1H-pyrazol-1-yl}-4-(cyanomethyl)piperidine-1-carboxylate] | 0.5 | 23
9 | CC(C)(C)OC(=O)N1CC(CC#N)(n2cc(C(N)=O)c(Nc3ccccc3)n2)C1 [Example 2-3, tert-butyl 3-[4-carbamoyl-3-(phenylamino)-1H-pyrazol-1-yl]-3-(cyanomethyl)azetidine-1-carboxylate] | 8 | 57
10 | CC(C)(C)OC(=O)N1CCC(CC#N)(n2cc(C(N)=O)c(Nc3cccc(Cn4nnc5ccccc54)c3)n2)CC1 [Example 2-4, tert-butyl 4-(3-{[3-(1H-benzotriazol-1-ylmethyl)phenyl]amino}-4-carbamoyl-1H-pyrazol-1-yl)-4-(cyanomethyl)piperidine-1-carboxylate] | 0.5 | 18
11 | CC(C)(C)OC(=O)N1CC(CC#N)(n2cc(C(N)=O)c(Nc3ccc(S(C)(=O)=O)cc3)n2)C1 [Example 2-5, tert-butyl 3-(4-carbamoyl-3-{[4-(methylsulfonyl)phenyl]amino}-1H-pyrazol-1-yl)-3-(cyanomethyl)azetidine-1-carboxylate] | 0.6 | 7
12 | CC(C)(C)OC(=O)N1CCC(CC#N)(n2cc(C(N)=O)c(Nc3ccc(C(=O)N4CCS(=O)(=O)CC4)cc3)n2)CC1 [Example 2-6, tert-butyl 4-[4-carbamoyl-3-({4-[(1,1-dioxidothiomorpholin-4-yl)carbonyl]phenyl}amino)-1H-pyrazol-1-yl]-4-(cyanomethyl)piperidine-1-carboxylate] | 0.5 | 1
13 | CC(C)(C)OC(=O)N1CCC(CC#N)(n2cc(C(N)=O)c(Nc3ccncc3)n2)CC1 [Example 2-7, tert-butyl 4-[4-carbamoyl-3-(pyridin-4-ylamino)-1H-pyrazol-1-yl]-4-(cyanomethyl)piperidine-1-carboxylate] | 0.3 | 10
14 | CC(C)(C)OC(=O)N1CC(CC#N)(n2cc(C(N)=O)c(Nc3ccc(C(=O)N4CCS(=O)(=O)CC4)cc3)n2)C1 [Example 2-8, tert-butyl 3-[4-carbamoyl-3-({4-[(1,1-dioxidothiomorpholin-4-yl)carbonyl]phenyl}amino)-1H-pyrazol-1-yl]-3-(cyanomethyl)azetidine-1-carboxylate] | 2 | 5
15 | CCS(=O)(=O)N1CC(CC#N)(n2cc(C(N)=O)c(Nc3ccccc3)n2)C1 [Example 2-12, 1-[3-(cyanomethyl)-1-(ethylsulfonyl)azetidin-3-yl]-3-(phenylamino)-1H-pyrazole-4-carboxamide] | 115 | 404
16 | CCS(=O)(=O)N1CC(CC#N)(n2cc(C(N)=O)c(Nc3ccc(C(=O)N4CCS(=O)(=O)CC4)cc3)n2)C1 [Example 2-13, 1-[3-(cyanomethyl)-1-(ethylsulfonyl)azetidin-3-yl]-3-({4-[(1,1-dioxidothiomorpholin-4-yl)carbonyl]phenyl}amino)-1H-pyrazole-4-carboxamide] | 27 | 38
17 | CS(=O)(=O)c1ccc(Nc2nn(C3(CC#N)CCCCC3)cc2C(N)=O)cc1 [Example 2-14, 1-[1-(cyanomethyl)cyclohexyl]-3-{[4-(methylsulfonyl)phenyl]amino}-1H-pyrazole-4-carboxamide] | 20 | 193
18 | N#CCC1(n2cc(C(N)=O)c(Nc3ccccc3)n2)CCCCC1 [Example 2-15, 1-[1-(cyanomethyl)cyclohexyl]-3-(phenylamino)-1H-pyrazole-4-carboxamide] | 10 | 92
19 | CC(C)(C)OC(=O)N1CCC(CC#N)(n2cc(C(N)=O)c(Nc3ccc(S(C)(=O)=O)cc3)n2)C1 (stereo not shown) [Example 2-16, tert-butyl 3-(4-carbamoyl-3-{[4-(methylsulfonyl)phenyl]amino}-1H-pyrazol-1-yl)-3-(cyanomethyl)pyrrolidine-1-carboxylate] | 0.2 | 2
20 | CC(C)(C)OC(=O)N1CCC(CC#N)(n2cc(C(N)=O)c(Nc3ccccc3)n2)C1 (stereo not shown) [Example 2-17, tert-butyl 3-[4-carbamoyl-3-(phenylamino)-1H-pyrazol-1-yl]-3-(cyanomethyl)pyrrolidine-1-carboxylate] | 2 | 27
21 | N#CCC1(n2cc(C(N)=O)c(Nc3ccccc3)n2)COC1 [Example 2-20, 1-[3-(cyanomethyl)oxetan-3-yl]-3-(phenylamino)-1H-pyrazole-4-carboxamide] | 33 | 241
22 | N#CC[C@]1(n2cc(C(N)=O)c(Nc3ccccc3)n2)C[C@@H](C#N)C1 [Example 2-21, 1-((1s,3s)-3-cyano-1-(cyanomethyl)cyclobutyl)-3-(phenylamino)-1H-pyrazole-4-carboxamide] | 31 | 405
23 | CS(=O)(=O)c1ccc(Nc2nn([C@]3(CC#N)C[C@@H](C#N)C3)cc2C(N)=O)cc1 [Example 2-22, 1-((1r,3r)-3-cyano-1-(cyanomethyl)cyclobutyl)-3-((4-(methylsulfonyl)phenyl)amino)-1H-pyrazole-4-carboxamide] | 13 | 127
24 | CC(C)(C)OC(=O)N1CC2(C1)CC(CC#N)(n1cc(C(N)=O)c(Nc3ccccc3)n1)C2 [Example 2-23, tert-butyl 6-[4-carbamoyl-3-(phenylamino)-1H-pyrazol-1-yl]-6-(cyanomethyl)-2-azaspiro[3.3]heptane-2-carboxylate] | 198 | 1480
25 | COc1ccc(N2CCC(CC#N)(n3cc(C(N)=O)c(Nc4ccc(F)cc4)n3)CC2)cc1OC [Example 3-1, 1-[4-(Cyanomethyl)-1-(3,4-dimethoxyphenyl)piperidin-4-yl]-3-[(4-fluorophenyl)amino]-1H-pyrazole-4-carboxamide] | 4 | 154
26 | N#CCC1(n2cc(C(N)=O)c(Nc3ccc(F)cc3)n2)CCN(c2ccnc3ccccc23)CC1 [Example 3-3, 1-[4-(cyanomethyl)-1-quinolin-4-ylpiperidin-4-yl]-3-[(4-fluorophenyl)amino]-1H-pyrazole-4-carboxamide] | 5 | 488
27 | Cc1cc(N2CCC(CC#N)(n3cc(C(N)=O)c(Nc4ccc(F)cc4)n3)CC2)ccn1 [Example 3-4, 1-[4-(cyanomethyl)-1-(2-methylpyridin-4-yl)piperidin-4-yl]-3-[(4-fluorophenyl)amino]-1H-pyrazole-4-carboxamide] | 8 | 174
28 | N#CCC1(n2cc(C(N)=O)c(Nc3ccc(F)cc3)n2)CCN(c2cncc(F)c2)CC1 [Example 3-5, 1-[4-(cyanomethyl)-1-(5-fluoropyridin-3-yl)piperidin-4-yl]-3-[(4-fluorophenyl)amino]-1H-pyrazole-4-carboxamide] | 0.2 | 4
29 | COc1cc(N2CCC(CC#N)(n3cc(C(N)=O)c(Nc4ccc(F)cc4)n3)CC2)ccn1 [Example 3-6, 1-[4-(cyanomethyl)-1-(2-methoxypyridin-4-yl)piperidin-4-yl]-3-[(4-fluorophenyl)amino]-1H-pyrazole-4-carboxamide] | 0.2 | 5
